In ChEMBL document CHEMBL1128373, “A-ring ortho-disubstituted aporphine derivatives as potential agonists or antagonists at serotonergic 5-HT1A receptors” (J Med Chem, 1995) one finds ED50 data, which are given here for 9 compounds.

Assay type in all cases: tissue-based
Common to all, as to conditions: Cavia porcellus, target entry is the homologue from another species

Assay [1] deals with T1, 5-hydroxytryptamine receptor 1A (Homo sapiens) (UniProt P08908).
T1 sequence (whole entry): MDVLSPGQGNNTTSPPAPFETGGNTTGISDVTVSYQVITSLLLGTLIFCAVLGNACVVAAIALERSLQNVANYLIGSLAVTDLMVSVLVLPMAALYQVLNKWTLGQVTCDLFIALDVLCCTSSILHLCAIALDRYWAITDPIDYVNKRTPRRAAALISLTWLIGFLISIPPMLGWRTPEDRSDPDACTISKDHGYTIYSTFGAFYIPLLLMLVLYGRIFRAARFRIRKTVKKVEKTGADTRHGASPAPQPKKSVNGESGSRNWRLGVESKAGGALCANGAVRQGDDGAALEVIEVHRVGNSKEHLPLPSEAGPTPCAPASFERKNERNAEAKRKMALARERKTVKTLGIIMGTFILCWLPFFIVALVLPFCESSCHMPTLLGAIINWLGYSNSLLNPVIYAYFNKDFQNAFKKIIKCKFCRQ
Nature of the assay: Ability to antagonize electrical induced contractile responses in Guinea pig ileum for 5-HT1A receptor.

The target of assay [2] is T1, 5-hydroxytryptamine receptor 1A (Homo sapiens). Nature of the assay: Ability to antagonize Acetylcholine induced contractile responses in Guinea pig ileum for 5-HT1A receptor.
For assay [3] the target is unchanged. Nature of the assay: Ability to antagonize electrical induced contractile responses in Guinea pig ileum for 5-HT1A receptor. Inactive at dose level of 1.0 uM.
The target is the same in assay [4]. Nature of the assay: Ability to antagonize Acetylcholine induced contractile responses in Guinea pig ileum for 5-HT1A receptor. Inactive at dose level of 1.0 uM.
Assay [5] shares this target. Nature of the assay: Ability to antagonize electrical induced contractile responses in Guinea pig ileum for 5-HT1A receptor; Inactive at dose level of 1.0 uM.

Active and inactive are the calls of the source. No cut-off for these calls is given here.

Turning to `Cc1ccc2c(c1O)-c1cccc3c1[C@@H](C2)N(C)CC3`, the ED50 in assay [1] is 0.05 µM.

As for `COc1cc2c(cc1C)-c1cccc3c1C(C2)N(C)CC3` (single isomer, unassigned; (-)), the ED50 worked out at 5 µM in assay [1] and 2.7 µM in assay [2].

For `COc1cc2c(cc1C)CC1c3c(cccc3-2)CCN1C` (stereo in doubt; (-)-9), the ED50 in assay [1] is 2.6 µM; in assay [2], 11.4 µM.

On to `COc1cc2c(cc1C)-c1cccc3c1C(C2)N(C)CC3` (single isomer, unassigned; (+)), for which the values for the ED50 in assay [1] and in assay [2] were 5.4 µM and 24.9 µM, respectively.

With `COc1cc2c(cc1C)CC1c3c(cccc3-2)CCN1C` (stereo in doubt; (+)-9), the ED50 in assay [1] came to 5.9 µM; in assay [2] it was 36.6 µM.

On to `Cc1cc2c(cc1O)CC1c3c(cccc3-2)CCN1C` (single isomer, unassigned; (+)), for which the ED50 result in assay [3] and in assay [4] was “inactive” each time.

Consider `Cc1cc2c(cc1O)-c1cccc3c1C(C2)N(C)CC3` (single isomer, unassigned; (+)), for which the ED50 entry in assay [4] and in assay [5] was “inactive” in each case.

On to `Cc1cc2c(cc1O)-c1cccc3c1C(C2)N(C)CC3` (single isomer, unassigned; (-)), for which the ED50 result in assay [3] and in assay [4] was “inactive” each time.

On to `Cc1cc2c(cc1O)CC1c3c(cccc3-2)CCN1C` (single isomer, unassigned; (-)), for which the ED50 result in assay [3] and in assay [4] was “inactive” in each case.
